From the METLIN SMRT retention time set (Domingo-Almenara et al. 2019)

Experiment: gradient 5% acetonitrile 3 min, to 50% in 2 min, to 85% in 15 min, held 3 min, 100 µL/min
Settings: column: Zorbax Extend-C18 2.1 x 50 mm; eluents: water / acetonitrile, 0.1% formic acid
Procedure, shortened: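 Mixtures of ~100 pure standards were chromatographed on a Zorbax Extend-C18 column (2.1 × 50 mm, 1.8 μm) at 100 μL/min using water and acetonitrile, each with 0.1% formic acid. Detection used a quadrupole time-of-flight mass spectrometer in positive and negative ionization mode, and data collection spanned 3 months. Retention time was obtained from adduct peaks picked computationally and each checked manually.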

Row | RP-LC retention time [s] | Compound
1 | 991 | O=C(NC1CCCCCCC1)c1nnc(-c2ccc(S(=O)(=O)N3CCOCC3)cc2)o1
2 | 1040 | COc1ccc(-n2c(=O)c3sccc3n(Cc3nc(-c4ccc(F)c(Cl)c4)no3)c2=O)cc1
3 | 702 | CCC1CCCCN1C(=O)c1cnc2nc(C)ccc2c1Nc1ccc(C)c(C)c1 (configuration not stated)
4 | 942 | CCC(Oc1ccc(-c2cnc3ccccc3n2)cc1)C(=O)N1CCN(c2ncccn2)CC1 (configuration not stated)
5 | 912 | CN(C)C(=O)C1CCN(c2nc3ccc(-c4ccc(F)cc4)nc3s2)CC1
6 | 858 | CCC(=O)N(CC(=O)N1CCc2sccc2C1COc1cccc(OC)c1)CC1CCCO1 (configuration not stated)
7 | 828 | CC(C(=O)O)c1ccc(N2Cc3ccccc3C2=O)cc1 (configuration not stated)
8 | 1100 | COc1cc(Nc2nc(-c3nnn(-c4ccc(Cl)cc4)c3C)ns2)cc(OC)c1
9 | 798 | Cc1ccsc1C(=O)N1CCC2(CC1)CC(N(C(=O)NC(C)C)C1CC1)CCO2 (configuration not stated)
10 | 596 | CCCOc1cc(S(=O)(=O)NCCCn2ccnc2)ccc1Cl
11 | 1120 | O=C(c1ccc(F)c(F)c1)N1CCCC(c2ccnc(-c3cccc(F)c3)n2)C1 (configuration not stated)
12 | 626 | Fc1ccc(OCc2nc(C3CCNC3)no2)cc1 (configuration not stated)
13 | 938 | Cc1ccc(-c2cc3c(N4CCCC(C(=O)NCc5ccc6c(c5)OCO6)C4)nccn3n2)c(C)c1 (configuration not stated)
14 | 809 | CCOC(=O)c1ccc(NC(=O)N2CCCC2c2cc(C)no2)cc1 (configuration not stated)
15 | 593 | Cc1c(CCC(=O)O)c(C)n2c(nc3ccccc32)c1C#N
16 | 902 | O=C(Nc1cnc(N2CCCCC2)nc1)c1ccccc1Br
17 | 723 | O=C1C[C@@H](c2ccc(O)c(O)c2)Oc2cc(O[C@H]3O[C@@H](CO)[C@H](O)[C@@H](O)[C@@H]3O)cc(O)c21
18 | 837 | Cc1noc(/C=C\c2ccc(S(=O)(=O)N3CCCC3)cc2)c1NC(=O)C1CC1
19 | 669 | NC(=O)c1ccccc1NC(=O)C1CCN(C(=O)c2ccccc2F)CC1
20 | 589 | CN(C)C[C@@H]1CN(c2ncccn2)C[C@H]1NS(=O)(=O)c1ccc(C#N)cc1
21 | 871 | Cc1cc(OCC(=O)Nc2cccc(F)c2)nc(N2CCN(c3ccccc3)CC2)n1
22 | 636 | Cc1ccccc1-c1nc2cnccn2c1NCCC(=O)NCC(C)C

Row | RP-LC retention time [s] | Compound
23 | 821 | O=C(Nc1ccc2c(c1)CN(C(=O)c1cccs1)CC2)c1ccccc1C(F)(F)F
24 | 789 | CCC(=O)N1CCc2cc(N3CC(C(=O)Nc4ccc(SC)cc4)CC3=O)ccc21 (configuration not stated)
25 | 1090 | COc1ccc(-c2noc(CSc3nc4cc5c(cc4c(=O)n3CC3CCCO3)OCO5)n2)cc1 (configuration not stated)
26 | 1110 | O=S(=O)(c1ccccc1F)N1CCC(c2noc(-c3ccc(F)cc3)n2)CC1
27 | 612 | COc1ccc(-c2cc(N3CCN(C(=O)c4c(F)cccc4Cl)CC3)ncn2)cc1
28 | 651 | COC[C@@H]1CN(S(=O)(=O)c2ccc(C)cc2)C[C@H]1c1ccncc1
29 | 808 | O=c1c(S(=O)(=O)N2CCCC2)cccn1Cc1nc(-c2ccccc2Cl)no1
30 | 742 | CCCNC(=O)NCCC1CCN(S(=O)(=O)c2ccc(C)cc2)CC1
31 | 937 | COc1ccc(NC(=O)Cn2ccc3ccc(-c4nnc(C)o4)cc32)cc1
32 | 986 | O=C(c1ccc2ccnc(N3CCN(c4ccc(Cl)cc4)CC3)c2c1)N1CCCCCC1
33 | 598 | Cc1cc(NC(=O)c2ccc(=O)n(C)n2)no1
34 | 802 | CCN1CCN(c2ccc(NC(=O)c3cccc(Cl)c3)cn2)C1=O
35 | 876 | O=C(Nc1ccccc1)C1CCCN(S(=O)(=O)c2c[nH]c(C(=O)N3CCCCCC3)c2)C1 (configuration not stated)
36 | 787 | Cc1cccc(C)c1NC(=O)Cn1nc2nc(N3CCCC(C)C3)ccn2c1=O (configuration not stated)
37 | 1160 | COc1ccc(-c2nc(-c3ccc4c(c3)oc(=O)n4C(C)C)no2)cc1F
38 | 938 | CCOc1ccc(-n2ccn3cc(-c4ccc(C)c(C)c4)nc3c2=O)cc1
39 | 819 | CCc1noc(NC(C)=O)c1-c1ccc(C)c(S(=O)(=O)Nc2cc(OC)ccc2OC)c1
40 | 908 | CCOC(=O)C(CC)Sc1ccc(NC(=O)c2cccs2)nn1 (configuration not stated)
41 | 1100 | Cc1cccc(NC(=O)N2CCCC2c2nc(-c3cccc(Cl)c3)no2)c1 (configuration not stated)
42 | 666 | CCn1c(SCC(=O)N2CCCC2)nnc1-c1ccc2c(c1)OCCCO2
43 | 643 | COCCC(=O)NCCC1CCN(C(=O)Nc2ccc(F)cc2F)CC1
44 | 877 | CCCCN1C(=O)CN(C2CCCCC2)C(=O)C1c1ccc(OC)c(OC)c1 (configuration not stated)

Row | RP-LC retention time [s] | Compound
45 | 599 | CCN1CCN(c2cc(C)c3cc(NC(=O)c4cc(-c5ccco5)nc5ccccc45)ccc3n2)CC1
46 | 672 | CCc1nnc(NC(=O)CSc2nnc(NC(=O)NC(C)(C)C)s2)s1
47 | 693 | Cc1cc2c(=O)n(CC(=O)Nc3ccc4c(c3)OCCO4)c3cccnc3n2n1
48 | 1130 | CCn1ccc(C(=O)N2CC(Oc3ccc(-c4nc(-c5ccccc5)no4)cc3)C2)n1
49 | 982 | O=C(NCc1ccc(Br)cc1)C1CCN(c2ncnc3c2oc2ccccc23)CC1
50 | 884 | COc1ccc2oc(-c3csc(NC(=O)c4ccc(N5C(=O)CCC5=O)cc4)n3)cc2c1
51 | 542 | CCN(CC)c1nc(C(=O)NCCN2CCN(C)CC2)nc2nc(C)cc(C)c12
52 | 960 | CCc1nc2c(NC(=O)CC3CCCCC3)cccn2n1
53 | 884 | CCOc1ccc(-c2[nH]ncc2CNS(=O)(=O)c2ccccc2CC)cc1
54 | 836 | Cc1nc(OCC(=O)Nc2cc(Cl)ccc2Cl)c2ccccc2n1
55 | 1200 | COc1ccc(Cl)cc1NC(=O)C(C)Oc1cc(C(F)(F)F)c2c(C)nn(C)c2n1 (configuration not stated)
56 | 780 | CCc1cc(C2CCCN2C(=O)Nc2ccccc2C)on1 (configuration not stated)
57 | 1040 | O=C(Nc1ccccc1SCc1nnc(-c2ccccc2)o1)c1ccc(Br)o1
58 | 934 | Cc1ccc(C)c(NC(=O)N(C)CCc2noc(COc3ccccc3)n2)c1
59 | 914 | COc1ccc(NC(=O)C2CCCN(S(=O)(=O)c3cc(-c4noc(C)n4)cs3)C2)cc1 (configuration not stated)
60 | 899 | COc1cccc(N2CCN(C3=Nc4c(F)cccc4[C@H](CC(=O)O)N3c3cc(C(F)(F)F)ccc3OC)CC2)c1
61 | 557 | COc1ccc(N2CCN(CCNC(=O)c3cccs3)CC2)cc1
62 | 610 | Cc1c(CN2CCSCC2)nnn1-c1ccc(F)cc1
63 | 828 | COc1ccc(NS(=O)(=O)c2cc3n(c2)CCN(CC(C)C)C3=O)cc1Cl
64 | 877 | CCOc1ccc(CNC(=O)C2CCCN(C(=O)c3[nH]c(C)c(C(=O)OC(C)C)c3C)C2)cc1 (configuration not stated)
65 | 900 | COc1ccc(-c2noc(C3CCCN3C(=O)c3cc(F)ccc3F)n2)cc1OC (configuration not stated)
66 | 732 | Fc1ccc(-c2nc(-c3ccc(-n4ccnc4)nc3)no2)cc1

Row | RP-LC retention time [s] | Compound
67 | 808 | Cc1ccc(C2Cn3cnc(C(=O)N4CCC(C(=O)NCc5cc(F)ccc5F)CC4)c3CO2)cc1 (configuration not stated)
68 | 1090 | Cc1ccccc1-c1noc(-c2nc(-c3ccncc3)no2)n1
69 | 787 | Cn1ncc2c3ccccc3n(CCCC(=O)NCc3ccco3)c2c1=O
70 | 642 | COc1cccc(C(c2sc3ncnn3c2O)N2CCN(C(=O)c3ccco3)CC2)c1 (configuration not stated)
71 | 855 | Cc1ccc(C2=NC3(CCN(C(=O)c4ccc(F)cc4F)CC3)ON2)cc1
72 | 676 | CC(=O)Nc1ccc(C(=O)NCc2cccs2)c(N2CCCCC2)c1
73 | 822 | CN(CC(=O)N1CCN(c2cccc(Cl)c2)CC1)S(=O)(=O)c1ccc2c(c1)CCCC(=O)N2
74 | 819 | CCc1nc2cc(-c3noc(CNC(=O)Cc4ccccc4)n3)ccc2o1
75 | 1140 | CCOc1ccc(/C=C/C(=O)Nc2nc(-c3ccccc3)cs2)cc1
76 | 1180 | O=C(NCCc1cccs1)c1c(O)c2cccnc2n(-c2cccc(F)c2)c1=O
77 | 697 | CCc1nncn1C1CCN(S(=O)(=O)c2cccc(C)c2)CC1
78 | 681 | CCc1nccn1Cc1nc(-c2ccc(C)c(C)c2)no1
79 | 890 | CCC(C(=O)NCCc1c[nH]c2ccc(OC)cc12)n1c2ccccc2c2cnn(C)c(=O)c21 (configuration not stated)
80 | 1170 | COc1ccc(-c2noc(-c3nnn4c3COC(c3ccc(C)cc3C)C4)n2)c(OC)c1 (configuration not stated)
81 | 671 | O=C(C1CCN(S(=O)(=O)N2CCCC2)CC1)N1CCN(Cc2noc3ccccc23)CC1
82 | 737 | CCN1C(=O)c2cccnc2Sc2cc(CNC(=O)c3cccs3)ccc21
83 | 963 | Fc1ccc(Nc2c(-c3ccc(Cl)cc3)nc3cnccn23)cc1
84 | 837 | CC(C)N1C(=O)c2cccnc2Sc2cc(NC(=O)c3cccs3)ccc21
85 | 675 | CC(=O)Nc1ccc(SCC(=O)N(C(C)C)C(C)C)nn1
86 | 662 | O=C(Nc1ccc2c(c1)OCCO2)C1CCN(c2cc(N3CCSCC3)ncn2)CC1

Row | Compound | RP-LC retention time [s]
87 | O=C(Cc1ccccc1Br)N1CCN(Cc2nncn2C2CCCCC2)CC1 | 642
